Assays:
Format in all cases: physicochemical
[1] = Solubility of 5,10-MTHF in water
Protocol: (§1) 10 ml sterile water was added to the reference formulation lyophile of 5,10-MTHF and to each of the test formulation lyophiles to give a final concentration of 10 mg/ml (this dissolution volume and concentration corresponds to the most current recommended clinical use guidelines for 5,10-MTHF for cancer therapy). The nonformulated 5,10-MTHF was dissolved in water to a concentration of 6 mg/ml. The lower concentration of nonformulated 5,10-MTHF was due to the fact that nonformulated 5,10-MTHF has a maximum solubility in water of approximately 6 mg/ml (when dissolved in a trisodium citrate, 5,10-MTHF has a much higher (>10 mg/ml) solubility). Samples were stored at room temperature under ambient air conditions to mimic as close as possible expected real-world use.

[2] = pH time course following dissolution in water; conditions: for pH following dissolution in water: room temperature, ambient air
Protocol: as §1
The pH of 5,10-MTHF dissolved in water was measured at multiple time points using a digital pH meter.

[3] = 5,10-MTHF stability following dissolution in water by HPLC; conditions: for % Normalized Purity of 5,10-MTHF: room temperature
Protocol: as §1
The stability of 5,10-MTHF dissolved in water was measured by HPLC. Data is reported as the normalized purity of 5,10-MTHF based on the starting purity according to the following formula: % Normalized Purity=(% 5,10-MTHF Time X)÷(% 5,10-MTHF Time 0)×(100)
5,10-MTHF stability kinetics were estimated by linear regression analysis (GraphPad Prism software).

SMILES: Nc1nc2c(c(=O)[nH]1)N1CN(c3ccc(C(=O)N[C@@H](CCC(=O)O)C(=O)O)cc3)CC1CN2 (some centres unmarked) [Nonformulated, 5,10-methylenetetrahydrofolate]
- solubility when dissolved in trisodium citrate ([1]; dissolved in a trisodium citrate): > 10000 µg/mL
- maximum solubility in water ([1]; nonformulated, water): approximately 6 mg/ml
- pH following dissolution in water ([2]; 0 hours): 6.88
- pH following dissolution in water ([2]; 0.25 hours): 6.89
- pH following dissolution in water ([2]; 0.5 hours): 6.87
- pH following dissolution in water ([2]; 0.75 hours): 6.85
- pH following dissolution in water ([2]; 1 hour): 6.83
- pH following dissolution in water ([2]; 2 hours): 6.77
- pH following dissolution in water ([2]; 4 hours): 6.80
- pH following dissolution in water ([2]; 6 hours): 6.83
- pH following dissolution in water ([2]; 8 hours): 6.81
- pH following dissolution in water ([2]; 24 hours): 6.79
- pH following dissolution in water (approximate, text summary) ([2]; starting and steady state pH over 24 hours): ~6.9
- % Normalized Purity of 5,10-MTHF ([3]; 0 hours after dissolution in water): 100.0%
- % Normalized Purity of 5,10-MTHF ([3]; 0.5 hours after dissolution in water): 94.9%
- % Normalized Purity of 5,10-MTHF ([3]; 1 hour after dissolution in water): 92.4%
- % Normalized Purity of 5,10-MTHF ([3]; 2 hours after dissolution in water): 90.3%
- % Normalized Purity of 5,10-MTHF ([3]; 4 hours after dissolution in water): 85.9%
- % Normalized Purity of 5,10-MTHF ([3]; 8 hours after dissolution in water): 77.8%
- % Normalized Purity of 5,10-MTHF ([3]; 12 hours after dissolution in water): 69.6%
- % Normalized Purity of 5,10-MTHF ([3]; 18 hours after dissolution in water): 55.1%
- % Normalized Purity of 5,10-MTHF ([3]; 24 hours after dissolution in water): 44.9%
- Linear Regression Degradation Rate Following Dissolution in Water ([3]; slope of best-fit line, 0-24 hours): −2.2 % Purity/Hours
